Measured values published in patent US8637237B2, “Methods, compositions, and systems for the identification of species-specific or developmental stage-specific insecticides” (The University of North Carolina at Greensboro, priority 2003, dated 2014).

Target: T1, FXR (Rattus norvegicus, UniProt Q62735)
T1 sequence (Q62735 1-469): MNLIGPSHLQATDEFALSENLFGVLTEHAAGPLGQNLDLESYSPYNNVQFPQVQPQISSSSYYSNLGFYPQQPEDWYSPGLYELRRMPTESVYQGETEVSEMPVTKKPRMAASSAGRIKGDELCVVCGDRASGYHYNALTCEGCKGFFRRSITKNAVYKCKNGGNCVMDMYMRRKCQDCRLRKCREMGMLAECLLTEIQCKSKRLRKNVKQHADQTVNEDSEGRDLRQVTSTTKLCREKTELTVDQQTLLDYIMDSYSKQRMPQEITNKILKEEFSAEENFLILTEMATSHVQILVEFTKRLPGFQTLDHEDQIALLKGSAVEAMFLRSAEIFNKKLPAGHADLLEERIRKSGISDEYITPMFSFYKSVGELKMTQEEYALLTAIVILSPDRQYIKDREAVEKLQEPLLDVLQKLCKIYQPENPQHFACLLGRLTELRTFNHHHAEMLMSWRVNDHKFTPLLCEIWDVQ
T1 sequence (P28700 1-467 partner): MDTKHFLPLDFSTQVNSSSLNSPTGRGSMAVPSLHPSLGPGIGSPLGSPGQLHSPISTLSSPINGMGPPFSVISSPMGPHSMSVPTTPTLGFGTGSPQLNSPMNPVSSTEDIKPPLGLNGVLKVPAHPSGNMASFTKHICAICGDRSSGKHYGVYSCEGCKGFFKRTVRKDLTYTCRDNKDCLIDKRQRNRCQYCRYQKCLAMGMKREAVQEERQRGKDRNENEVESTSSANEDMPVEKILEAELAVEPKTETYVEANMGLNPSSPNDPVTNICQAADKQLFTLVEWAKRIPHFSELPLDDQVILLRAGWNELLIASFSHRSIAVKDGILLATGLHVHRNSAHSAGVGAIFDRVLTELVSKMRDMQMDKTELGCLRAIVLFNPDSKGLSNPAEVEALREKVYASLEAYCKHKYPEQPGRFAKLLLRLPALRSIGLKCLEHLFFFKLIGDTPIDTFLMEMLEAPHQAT
Assay: cell-based
Conditions: for FXR-dependent transcription, induction: 7.5 μM
Experimental: These experiments employed a mammalian cell culture system using Chinese hamster ovary cells (CHO) to evaluate the transcriptional function of Drosophila melanogaster EcR and USP using methods described previously (U.S. Patent Application Publication No: 2005/0049230; Henrich et al, 2003). Cells were seeded in 6-well polypropylene culture plates (Falcon) with 10^5 cells per well on the day prior to transfection. Transfection was subsequently performed using either calcium phosphate (Kitareewan et al., 1996, Mol. Biol. Cell, 7:1153-1196) or a GenePorter reagent (Gene Therapy Systems, Inc; San Diego, Calif.) following manufacturer's protocols. Each well received 1.25 μg of (EcRE)5-ΔMTV-CAT (five copies of the hsp27 EcRE inserted into an mouse mammary tumor virus (MTV) promoter upstream of the chloramphenicol acetyltransferase (CAT) gene) or (EcRE)5-ΔMTV-LUC (the same promoter attached to firefly luciferase), 1.25 μg of pCH111 (SV40 early promoter linked to the β-galactosidase gene) to normalize CAT activity, and 0.25 μg of each expression plasmid (EcR, FXR, RXR, USP) that was tested. The cells were incubated with plasmid DNA for seven hours and then washed with 1×PBS. Muristerone A (murA; Alexis Biochemicals) or 20-hydroxyecdysone (20E; Sigma) dissolved in ethanol to a concentration of 10 mM was diluted as necessary to the final assay concentration (FAC) in 2 ml of fresh incubation medium that was then applied to the cells. Similarly, JHIII (Sigma) was dissolved in dimethyl sulfoxide (DMSO) to a concentration of […] and diluted into the incubation medium to its final assay concentration (20, 40, 80, 160 μM). […] A corresponding volume of ethanol and DMSO were added to control cells for all experiments. For all experiments, the cells were allowed to incubate with the medium for 24 hours before collection and cell lysates were prepared by described methods (Kitareewan et al., 1996). Both β-galactosidase and CAT reporter activity were measured based on previously used methods (Kitareewan et al, 1996). Luciferase assays using luciferrin followed the specifications of the manufacturer.
Transcriptional activity, measured as ^14C-chloramphenicol counts (for measuring CAT activity) or relative luciferase activity (RLU) was quantified for each cell lysate. The counts were then normalized by adjusting for differences in β-galactosidase activity, since β-galactosidase expression is controlled by a constitutive promoter and provides an estimate of cell mass. Data were normalized as fold-induction based on differences in reporter gene activity between hormonally treated and control cells.
In these experiments, candidate juvenoids were tested for their ability to activate FXR mediated transcription by transfecting Chinese hamster ovary (CHO) cells using the FXR plasmid, mouse RXRα, and the ΔMTV-(EcRE)5-CAT reporter as described herein. An RXR-dependent CRBPII-CAT reporter plasmid was employed in parallel assays to discern activators specific for this receptor.

[1] = dose 20 μM, 1 = no increase over vehicle

5,11-dimethyltetrahydrochrysene
FXR-dependent activity, induction (dose not stated): activated

CCCCCc1cc(O)c2c(c1)OC(C)(C)[C@@H]1CC=C(C)C[C@@H]21 (single isomer, unassigned) [Δ^8-isomer]
FXR-dependent CAT activity, induction (15 μM): not

CC12CCC(CC1)C(C)(C)O2 [1,8-cineole]
FXR-dependent activity, induction (800 μM): two-fold
FXR ACTIVITY (fold-induction) (dose 400 μM): 2 fold-induction

OCCc1ccccc1O [2-hydroxyphenethyl alcohol, 2-hydroxyphenethlyl alcohol]
FXR-dependent activity, induction (400 μM): 3 fold

C=C(C)CCc1cc(OC)c(OC)cc1O [3,4-dimethoxy-6-isopentenylphenol]
FXR-dependent activity, induction (100 μM): 3 fold

OCCc1cccc(O)c1 [3-hydroxyphenethyl alcohol, 3-hydroxyphenethlyl alcohol]
FXR-dependent activity, induction (400 μM): 3 fold

OCCc1ccc(O)cc1 [4-hydroxyphenethyl alcohol, 4-hydroxyphenethlyl alcohol]
FXR-dependent activity, induction (400 μM): 3 fold

COc1cc2ccc(=O)oc2cc1O [7-hydroxy-6-methoxycoumarin]
FXR-dependent activity, induction (1 mM): ineffectiveness

CC(C)CCC[C@@H](C)[C@H]1CC[C@H]2[C@@H]3C(=O)C=C4C[C@@H](O)CC[C@]4(C)[C@H]3CC[C@]12C [7-ketocholesterol]
FXR-dependent transcription, induction: not

COc1ccc2ccc(=O)oc2c1 [7-methoxycoumarin]
FXR-dependent activity, induction (1 mM): 10 fold

CC(C)CCC[C@@H](C)[C@H]1CC[C@H]2[C@@H]3[C@H](O)C=C4C[C@@H](O)CC[C@]4(C)[C@H]3CC[C@]12C [7α-hydroxycholesterol]
FXR-dependent transcription, induction: not

Nc1ncnc2c1nc(Br)n2[C@@H]1O[C@@H]2COP(=O)(O)O[C@H]2[C@H]1O [8-Br-cAMP]
FXR-dependent activity, induction (1 mM): 4 fold

COc1c2occc2cc2ccc(=O)oc12 [8-methoxypsoralen]
FXR-dependent CAT activity, induction (50 μM): inactive

CC(C)=CCc1c(O)cc(O)c2c1O[C@H](c1ccc(O)cc1)CC2=O [8-prenylnaringenin]
FXR-dependent CAT activity, induction (20 μM): 38 fold
FXR ACTIVITY (fold-induction) [1]: 38 fold-induction

CC(C)CCC[C@](C)(O)[C@H]1CC[C@H]2[C@@H]3CC=C4C[C@@H](O)CC[C@]4(C)[C@H]3CC[C@@]21C [20α-hydroxycholesterol]
FXR-dependent transcription, induction: 10 fold

CC(C)CC[C@H](O)[C@@H](C)[C@H]1CC[C@H]2[C@@H]3CC=C4C[C@@H](O)CC[C@]4(C)[C@H]3CC[C@]12C [22S-hydroxycholesterol]
FXR-dependent transcription, induction: not

COc1cc(O)c(CC=C(C)C)c2c1C(=O)CC(c1ccc(O)cc1)O2 (stereo not shown) [Isoxanthohumol]
FXR-dependent CAT activity, induction (20 μM): 9 fold
FXR ACTIVITY (fold-induction) [1]: 9 fold-induction

CC(C)=CCC1=C(O)C(C(=O)CC(C)C)=C(O)C(CC=C(C)C)(CC=C(C)C)C1=O [Lupulone]
FXR-dependent CAT activity, induction (20 μM): inert
FXR ACTIVITY (fold-induction) [1]: 1 fold-induction

CC1=C[C@H]2[C@@]3(O)[C@H](C)[C@@H](O)[C@]4(O)[C@H]([C@@H]3C=C(CO)C[C@]2(O)C1=O)C4(C)C [Phorbol]
FXR-dependent activity, induction (dose not stated): inactive

CCCCCc1cc(O)c2c(c1)OC(C)(C)[C@@H]1CCC(C)=C[C@@H]21 [THC, 1-trans-Δ^9-tetrahydrocannabinol]
FXR-dependent CAT activity, induction (15 μM): 5 fold

COC1=C(OC)C(=O)C(CC=C(C)C)=C(C)C1=O [U1, Ubiquinone-1]
inhibition of farnesol-induced FXR-dependent activity (10 μM): completely inhibited

COC1=C(OC)C(=O)C(C/C=C(\C)CC/C=C(\C)CCC=C(C)C)=C(C)C1=O [U3]
FXR-dependent activity, induction (dose not stated): 5 fold

COC1=C(OC)C(=O)C(C/C=C(\C)CC/C=C(\C)CC/C=C(\C)CCC=C(C)C)=C(C)C1=O [U4]
FXR-dependent activity, induction (dose not stated): 3 fold

COC1=C(OC)C(=O)C(C/C=C(\C)CC/C=C(\C)CC/C=C(\C)CC/C=C(\C)CC/C=C(\C)CCC=C(C)C)=C(C)C1=O [U6]
FXR-dependent activity, induction (dose not stated): inactive

COC1=C(OC)C(=O)C(C/C=C(\C)CC/C=C(\C)CC/C=C(\C)CC/C=C(\C)CC/C=C(\C)CC/C=C(\C)CC/C=C(\C)CCC=C(C)C)=C(C)C1=O [U8]
FXR-dependent activity, induction (dose not stated): inactive

COC1=C(OC)C(=O)C(C/C=C(\C)CC/C=C(\C)CC/C=C(\C)CC/C=C(\C)CC/C=C(\C)CC/C=C(\C)CC/C=C(\C)CC/C=C(\C)CCC=C(C)C)=C(C)C1=O [U9]
FXR-dependent activity, induction (dose not stated): inactive

COC1=C(OC)C(=O)C(C/C=C(\C)CC/C=C(\C)CC/C=C(\C)CC/C=C(\C)CC/C=C(\C)CC/C=C(\C)CC/C=C(\C)CC/C=C(\C)CC/C=C(\C)CCC=C(C)C)=C(C)C1=O [U10]
FXR-dependent activity, induction (dose not stated): inactive

COc1cc(O)c(CC=C(C)C)c(O)c1C(=O)/C=C/c1ccc(O)cc1 [Xanthohumol]
FXR ACTIVITY (fold-induction) (dose not given, 1 = no increase over vehicle): 1 fold-induction
FXR-dependent activity, induction (dose not stated): not activated

CCOC(=O)C=C(C)CCCC(C)(Cl)CCCC(C)(C)Cl (stereo not shown) [ZR232, ethyl ester of 7,11-dichloro-2-ene farnesoic acid]
FXR-dependent CAT activity, induction (50 μM): 5 fold

Nc1ncnc2nc[nH]c12 [adenine]
FXR-dependent activity, induction (dose not stated): ineffective

C=CCc1cc(OC)c2c(c1OC)OCO2 [apiole]
FXR-dependent CAT activity, induction (250 μM): 4 fold

CC(C)=CCC/C(C)=C/COc1c2ccoc2cc2oc(=O)ccc12 [bergamotin]
FXR-dependent activity, induction (25 μM): 8 fold
FXR ACTIVITY (fold-induction) (dose 25 μM): 10 fold-induction

C=CCC1=C(C)C(OC(=O)[C@@H]2[C@@H](C=C(C)C)C2(C)C)CC1=O (stereo partly shown) [bioallethrin]
FXR-dependent activity, induction (25 μM): 14 fold

C[C@@]12CCc3occc3[C@H]1CC[C@@]13C[C@@H](CC[C@H]12)[C@@](O)(CO)C3 [cafestol]
FXR ACTIVITY (fold-induction) [1]: 12 fold-induction

O=C(O)/C=C/c1ccc(O)c(O)c1 [caffeic acid]
FXR-dependent CAT activity, induction (250 μM): inactive
FXR ACTIVITY (fold-induction) (dose 100 μM, 1 = no increase over vehicle): 1 fold-induction

CCCCCc1cc(O)c2c(c1)OC(C)(C)c1ccc(C)cc1-2 [cannabinol]
FXR-dependent CAT activity, induction (15 μM): not

CNC(=O)Oc1cccc2ccccc12 [carbaryl]
FXR-dependent activity, induction (dose not stated): inactive

ClC1=C(Cl)C2(Cl)C3C(Cl)C(Cl)CC3C1(Cl)C2(Cl)Cl (stereo not shown) [chlordane]
FXR-dependent CAT activity, induction (5 μM): 7 fold
FXR ACTIVITY (fold-induction) (dose 5 μM): 7 fold-induction

CCOCn1c(-c2ccc(Cl)cc2)c(C#N)c(Br)c1C(F)(F)F [chlorfenapyr]
FXR-dependent activity, induction (25 μM): 10 fold

CC(C)(O)/C=C/C(=O)[C@](C)(O)[C@H]1[C@H](O)C[C@@]2(C)[C@@H]3CC=C4[C@@H](C[C@H](O)C(=O)C4(C)C)[C@]3(C)C(=O)C[C@]12C [cucurbitacin D]
suppression of FXR-dependent activity promoted by CDCA (1 μM cucurbitacin D, 40 μM CDCA): 58 fold
suppression of FXR-dependent activity promoted by JH III (1 μM cucurbitacin D, 40 μM JH III): 7 fold
